US20250171516A1, “PEPTIDE ACIDS AS A GLP1R AGONIST AND ANTIBODY-DRUG CONJUGATES THEREOF” (Regeneron Pharmaceuticals, Inc., priority 2023, published 2025)
Where two headings read alike, the source gives them in different places. Starred links: 1 amine or outer side, 2 acyl side, 3 side chain; linkers in the order of their positions; H or OH if unused. Non-standard residues stand in square brackets, D forms with d. Residues, ends and D or L forms follow the SMILES beside them. Groups on a side chain read outwards from the residue. No end group written: not given here. ξ: configuration not given here. *: point of attachment. X3 = CCc1cc(OCCCCn2cc(COCCOCCOCCOCCOCCOCCOCCOCCOCCOCCOCCOCCN)nn2)ccc1-c1ccc(C[C@H](N[*:1])C(=O)[*:2])cc1; X1 = CCc1cc(OCCCCn2cc(COCCOCCOCCOCCOCCOCCOCCOCCN)nn2)ccc1-c1ccc(C[C@H](N[*:1])C(=O)[*:2])cc1; Bip(2'-Et,4'-O(CH2)4N3) = CCc1cc(OCCCCN=[N+]=[N-])ccc1-c1ccc(C[C@H](N)C(=O)O)cc1; Malonyl(2,2-Me2,histaminyl) = CC(C)(C(=O)NCCc1cnc[nH]1)C(=O)*; Nva(5-(3,5-Me2Ph)) = Cc1cc(C)cc(CCC[C@H](N)C(=O)O)c1; Ala(1H-tetrazol-5-yl) = N[C@@H](Cc1nnn[nH]1)C(=O)O; αMePhe(2-F) = C[C@](N)(Cc1ccccc1F)C(=O)O; ξαMePhe(2-F) = CC(N)(Cc1ccccc1F)C(=O)O; AA10 = not defined here; AA1 = not defined here; AA2 = not defined here; AA6 = not defined here; AA9 = not defined here; tBu = CC(C)(C)*

Tests used:
GLP-1R = GLP-1R (Homo sapiens, UniProt P43220); assay: GLP-1R cAMP assay of peptides (Tables 10, 14, 15); type: cell-based
GLP-1R, sequence (P43220 24-463): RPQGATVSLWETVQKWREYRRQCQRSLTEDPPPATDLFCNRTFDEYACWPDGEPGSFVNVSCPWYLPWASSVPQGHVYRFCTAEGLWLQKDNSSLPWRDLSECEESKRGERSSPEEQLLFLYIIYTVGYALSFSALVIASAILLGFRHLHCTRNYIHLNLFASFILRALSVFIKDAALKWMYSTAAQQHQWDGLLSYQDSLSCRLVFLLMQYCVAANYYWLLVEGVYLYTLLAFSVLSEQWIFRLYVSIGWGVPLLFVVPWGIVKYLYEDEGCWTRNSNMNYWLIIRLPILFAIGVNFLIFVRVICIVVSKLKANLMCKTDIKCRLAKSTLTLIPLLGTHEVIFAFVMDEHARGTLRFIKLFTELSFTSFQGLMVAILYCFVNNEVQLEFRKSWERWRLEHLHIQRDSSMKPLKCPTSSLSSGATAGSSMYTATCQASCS

[1] = target: GLP-1R of the cAMP assay of Tables 10, 14 and 15 (human, UniProt P43220 24-463, limits assumed); assay: cell-based or functional assay
[2] = Table 10, read-out: GLP-1R CAMP EC50
[3] = Table 14, peptide amides, read-out: cAMP EC50
[4] = Table 15, peptide acids, read-out: cAMP EC50

Molecule | GLP-1R CAMP Max (GLP-1R; Table 10) [%] | EC50 (GLP-1R; [2]) [nM] | GLP-1R CAMP EC50 [1] [nM] | GLP-1R CAMP Max (%) [1] [%] | further results
CCc1cc(OCCCCn2cc(COCCOCCOCCOCCOCCOCCOCCOCCN)nn2)ccc1-c1ccc(C[C@H](NC(=O)[C@H](CC(=O)O)NC(=O)[C@H](CO)NC(=O)[C@@H](NC(=O)[C@](C)(Cc2ccccc2F)NC(=O)[C@@H](NC(=O)CNC(=O)[C@H](Cc2nnn[nH]2)NC(=O)C(C)(C)C(=O)NCCc2cnc[nH]2)[C@@H](C)O)[C@@H](C)O)C(N)=O)cc1 ({Malonyl(2,2-Me2,histaminyl)}-[Ala(1H-tetrazol-5-yl)]GT[αMePhe(2-F)]TSD[X1]-NH2) | 104.11 | 59.6 | – | – | –
C[C@@H](O)[C@H](NC(=O)CNC(=O)[C@H](Cc1nn[nH]n1)NC(=O)C(C)(C)C(=O)NCCc1cnc[nH]1)C(=O)N[C@@](C)(Cc1ccccc1F)C(=O)O [AA10-AA9-AA8-AA7-AA6-OH] ({Malonyl(2,2-Me2,histaminyl)}-[Ala(1H-tetrazol-5-yl)]GT[αMePhe(2-F)]-OH) | −1.13 | > 1000 | – | – | –
CCc1cc(OCCCCn2cc(COCCOCCOCCOCCOCCOCCOCCOCCN)nn2)ccc1-c1ccc(C[C@H](NC(=O)[C@H](CC(=O)O)NC(=O)[C@H](CO)NC(=O)[C@@H](NC(=O)[C@](C)(Cc2ccccc2F)NC(=O)[C@@H](NC(=O)CNC(=O)[C@@H](N)Cc2nnn[nH]2)[C@@H](C)O)[C@@H](C)O)C(=O)N[C@@H](CCCc2cc(C)cc(C)c2)C(N)=O)cc1 [M6295] (H-[Ala(1H-tetrazol-5-yl)]GT[αMePhe(2-F)]TSD[X1][Nva(5-(3,5-Me2Ph))]-NH2) | – | – | – | – | EC50 (GLP-1R; [3]): 351 nM
CCc1cc(OCCCCN=[N+]=[N-])ccc1-c1ccc(C[C@H](NC(=O)[C@H](CC(=O)O)NC(=O)[C@H](COC(C)(C)C)NC(=O)[C@@H](NC(=O)C(C)(Cc2ccccc2F)NC(=O)[C@@H](NC(=O)CNC(=O)[C@H](Cc2nnn[nH]2)NC(=O)C(C)(C)C(=O)NCCc2cnc[nH]2)[C@@H](C)O)[C@@H](C)O)C(=O)N[C@@H](CCCc2cc(C)cc(C)c2)C(=O)O)cc1 (stereo partly drawn) ({Malonyl(2,2-Me2,histaminyl)}-[Ala(1H-tetrazol-5-yl)]GT[ξαMePhe(2-F)]TS(tBu)D[Bip(2'-Et,4'-O(CH2)4N3)][Nva(5-(3,5-Me2Ph))]-OH) | 122.44 | 2.94 | – | – | –
CCc1cc(OCCCCN=[N+]=[N-])ccc1-c1ccc(C[C@H](NC(=O)[C@H](CC(=O)O)NC(=O)[C@H](CO)NC(=O)[C@@H](NC(=O)C(C)(Cc2ccccc2F)NC(=O)[C@@H](NC(=O)CNC(=O)[C@H](Cc2nnn[nH]2)NC(=O)C(C)(C)C(=O)NCCc2cnc[nH]2)[C@@H](C)O)[C@@H](C)O)C(=O)O)cc1 (stereo partly drawn) [AA10-AA9-AA8-AA7-AA6-AA5-AA4-AA3-AA2-OH] | 97.92 | 51.2 | – | – | –
C[C@@H](O)[C@H](NC(=O)CNC(=O)[C@H](Cc1nn[nH]n1)NC(=O)C(C)(C)C(=O)NCCc1cnc[nH]1)C(=O)N[C@@](C)(Cc1ccccc1F)C(=O)N[C@H](C(=O)N[C@@H](CO)C(=O)N[C@@H](CC(=O)O)C(=O)O)[C@@H](C)O [AA10-AA9-AA8-AA7-AA6-AA5-AA4-AA3-OH] | −0.25 | > 1000 | – | – | –
CCc1cc(OCCCCn2cc(COCCOCCOCCOCCOCCOCCOCCOCCOCCOCCOCCOCCN)nn2)ccc1-c1ccc(C[C@H](NC(=O)[C@H](CC(=O)O)NC(=O)[C@H](CO)NC(=O)[C@@H](NC(=O)[C@](C)(Cc2ccccc2F)NC(=O)[C@@H](NC(=O)CNC(=O)[C@H](Cc2nn[nH]n2)NC(=O)C(C)(C)C(=O)NCCc2c[nH]cn2)[C@@H](C)O)[C@@H](C)O)C(=O)N[C@@H](CCCc2cc(C)cc(C)c2)C(N)=O)cc1 ({Malonyl(2,2-Me2,histaminyl)}-[Ala(1H-tetrazol-5-yl)]GT[αMePhe(2-F)]TSD[X3][Nva(5-(3,5-Me2Ph))]-NH2) | – | – | – | – | EC50 (GLP-1R; [3]): 1.89 nM
C[C@@H](O)[C@H](NC(=O)CNC(=O)[C@H](Cc1nn[nH]n1)NC(=O)C(C)(C)C(=O)NCCc1cnc[nH]1)C(=O)O [AA10-AA9-AA8-AA7-OH] | −0.52 | > 1000 | – | – | –
CCc1cc(OCCCCN=[N+]=[N-])ccc1-c1ccc(C[C@H](NC(=O)[C@H](CC(=O)O)NC(=O)[C@H](CO)NC(=O)[C@@H](NC(=O)[C@](C)(Cc2ccccc2F)NC(=O)[C@@H](NC(=O)CNC(=O)[C@@H](N)Cc2nn[nH]n2)[C@@H](C)O)[C@@H](C)O)C(=O)N[C@@H](CCCc2cc(C)cc(C)c2)C(N)=O)cc1 [M2383] (H-[Ala(1H-tetrazol-5-yl)]GT[αMePhe(2-F)]TSD[Bip(2'-Et,4'-O(CH2)4N3)][Nva(5-(3,5-Me2Ph))]-NH2) | – | – | – | – | EC50 (GLP-1R; [3]): 280 nM
CCc1cc(OCCCCN=[N+]=[N-])ccc1-c1ccc(C[C@H](NC(=O)[C@H](CC(=O)O)NC(=O)[C@H](CO)NC(=O)[C@@H](NC(=O)[C@](C)(Cc2ccccc2F)NC(=O)[C@@H](NC(=O)CNC(=O)[C@H](Cc2nn[nH]n2)NC(=O)C(C)(C)C(=O)NCCc2cnc[nH]2)[C@@H](C)O)[C@@H](C)O)C(=O)N[C@@H](CCCc2cc(C)cc(C)c2)C(N)=O)cc1 [M2361] ({Malonyl(2,2-Me2,histaminyl)}-[Ala(1H-tetrazol-5-yl)]GT[αMePhe(2-F)]TSD[Bip(2'-Et,4'-O(CH2)4N3)][Nva(5-(3,5-Me2Ph))]-NH2) | – | – | – | – | EC50 (GLP-1R; [3]): 0.359 nM
CC(C)(C(=O)NCCc1cnc[nH]1)C(=O)N[C@@H](Cc1nn[nH]n1)C(=O)NCC(=O)O [AA10-AA9-AA8-OH] | −1.39 | > 1000 | – | – | –
[AA10][AA9]GT[AA6]TSD[AA2]([Leu-Gln-Leu-Leu])-OH (reading uncertain; also: printed as AA10-AA9-AA8-AA7-AA6-AA5-AA4-AA3-(LLQ-L)AA2-OH) [AA10-AA9-AA8-AA7-AA6-AA5-AA4-AA3-(LLQ-L)AA2-OH] | – | – | > 1000 | 33.9 | –
[AA10][AA9]GT[AA6]TSDX-OH (not fully specified (residue 9); printed as AA10-AA9-AA8-AA7-AA6-AA5-AA4-AA3-AA2-OH) [AA10-AA9-AA8-AA7-AA6-AA5-AA4-AA3-AA2-OH] | – | – | 51.2 | 97.9 | –
[AA10][AA9]GT[AA6]TSD[AA2]([Leu-Gln])-OH (reading uncertain; also: printed as AA10-AA9-AA8-AA7-AA6-AA5-AA4-AA3-(Q-L)AA2-OH) [AA10-AA9-AA8-AA7-AA6-AA5-AA4-AA3-(Q-L)AA2-OH] | – | – | > 1000 | 29.2 | –
[AA10][AA9]GT[AA6]TXD[AA2][AA1]-OH (not fully specified (residue 7); printed as AA10-AA9-AA8-AA7-AA6-AA5-AA4-AA3-AA2-AA1-OH; also: AA2 azidobutoxy) [AA10-AA9-AA8-AA7-AA6-AA5-AA4-AA3-AA2-AA1-OH] | – | – | 2.94 | 122 | –
[AA10][AA9]GT[AA6]TSD[AA2]([Leu-Gln-Leu-Leu])[AA1]-OH (reading uncertain; also: printed as LLQ-M6009 (AA10-AA9-AA8-AA7-AA6-AA5-AA4-AA3-(LLQ-L)AA2-AA1-OH)) [LLQ-M6009 (AA10-AA9-AA8-AA7-AA6-AA5-AA4-AA3-(LLQ-L)AA2-AA1-OH)] | – | – | 13.4 | 104 | –
XXGTXTSDXX-OH (not fully specified (residues 1, 2, 5, 9, 10); printed as Q-M6009 (AA10-AA9-AA8-AA7-AA6-AA5-AA4-AA3-(Q-L)AA2-AA1-OH)) [Q-M6009 (AA10-AA9-AA8-AA7-AA6-AA5-AA4-AA3-(Q-L)AA2-AA1-OH)] | – | – | 3.21 | 106 | –

Now from value to molecule, other results behind:

GLP-1R CAMP Max (GLP-1R; Table 10) [%] | EC50 (GLP-1R; [2]) [nM] | GLP-1R CAMP EC50 [1] [nM] | GLP-1R CAMP Max (%) [1] [%] | Molecule | further results
29.24 | > 1000 | – | – | CCc1cc(OCCCCn2cc(COCCOCCOCCOCCOCCOCCOCCOCCNC(=O)CC[C@H](N)C(=O)O)nn2)ccc1-c1ccc(C[C@H](NC(=O)[C@H](CC(=O)O)NC(=O)[C@H](CO)NC(=O)[C@@H](NC(=O)C(C)(Cc2ccccc2F)NC(=O)[C@@H](NC(=O)CNC(=O)[C@H](Cc2nn[nH]n2)NC(=O)C(C)(C)C(=O)NCCc2cnc[nH]2)[C@@H](C)O)[C@@H](C)O)C(=O)O)cc1 (stereo partly drawn) [M6322] | EC50 (GLP-1R; [4]): > 1000 nM
33.86 | > 1000 | – | – | CCc1cc(OCCCCn2cc(COCCOCCOCCOCCOCCOCCOCCOCCNC(=O)CC[C@H](NC(=O)[C@H](CC(C)C)NC(=O)[C@@H](N)CC(C)C)C(=O)O)nn2)ccc1-c1ccc(C[C@H](NC(=O)[C@H](CC(=O)O)NC(=O)[C@H](CO)NC(=O)[C@@H](NC(=O)C(C)(Cc2ccccc2F)NC(=O)[C@@H](NC(=O)CNC(=O)[C@H](Cc2nn[nH]n2)NC(=O)C(C)(C)C(=O)NCCc2cnc[nH]2)[C@@H](C)O)[C@@H](C)O)C(=O)O)cc1 (stereo partly drawn) [M6321] | EC50 (GLP-1R; [4]): > 1000 nM
